Test results taken from ChEMBL document CHEMBL3507680, “University of Dundee, Gates Library screen for HepG2 cell viability”.

Test: Human HepG2 cell viability assay in 384 well format
Assay type: toxicity, cell-based
Set-up: dose 125 nL, time 70.5 hour; cytotoxicity at 70.5 h: concentration not given beside the values
Conditions: HepG2 cells, read-out: Inhibition

| Structure (SMILES) | cytotoxicity at 70.5 h [%] |
| --- | --- |
| CC(C)(O)c1cc(CC2(NCc3ccco3)COC2)no1 | -7.88 |
| Cc1cccc2c1nc1n2[C@@H](CNC(=O)c2cnccn2)COC1 | 12.8 |
| Cc1cccc2c1nc1n2[C@@H](CNC(=O)CCC(=O)O)COC1 | -4.85 |
| COc1ccccc1C(=O)NC[C@H]1COCc2nc3c(C)cccc3n21 | -1.28 |
| O[C@@H]1C[C@@H](c2nc(Cc3ccccc3)no2)N(Cc2ncc[nH]2)C1 | 9.72 |
| Cc1ccc(CN2C[C@H]3CN(C(=O)c4ccno4)CCN3C2=O)cc1 | 6.23 |
| O=C1NC[C@H]2CN(Cc3ccnc4ccccc34)CCN12 | -6.05 |
| CN(C)C(=O)CO[C@H]1COCCN(C2CCOCC2)C1 | -4.86 |
| CC(C)(C)c1coc([C@@H]2COCCN2CC2CC2)n1 | -0.839 |
| CCCOc1cc(C)c2c(c1C)C[C@H]([C@H](C)C(=O)O)CC2 | -3.42 |
| COc1ccc2c(c1)nc1n2[C@@H](CNC(=O)c2ccccn2)COC1 | -7.73 |
| Cn1c(CO[C@H]2CN(S(C)(=O)=O)C[C@H]2F)nc2ccccc21 | -1.31 |
| FC(F)(F)c1ccc(CNC[C@H]2COCc3nc4cccnc4n32)cc1 | -3.68 |
| Cc1noc([C@@H]2C[C@H](NS(=O)(=O)Cc3ccccc3)CN2C)n1 | -3.9 |
| O=C1CO[C@H]2CN(Cc3c[nH]c4ccccc34)C[C@H]2N1 | 7.73 |
| COc1ccc2c(c1)nc1n2[C@@H](CNCc2ncccc2C)COC1 | -5.69 |
| c1ccc2c(c1)nc1n2[C@@H](CNCc2nccs2)COC1 | -19.6 |
| O=C(C1CC1)N1C[C@@H](F)[C@@H](OCc2nc3ccccc3o2)C1 | 0.185 |
| COCCOc1ccnc(-c2noc([C@@H]3CCCN3C(C)C)n2)c1 | -5.66 |
| NC(=O)c1cccc2nc([C@H]3CCN(Cc4ccccc4F)C3)[nH]c12 | -3.45 |
| CC(C)NC(=O)N[C@H]1C[C@@H](Cc2cc(CN3CCOCC3)on2)C1(C)C | -8.22 |
| COCCN1C(=O)CO[C@H]2CN(Cc3ccccc3OC)C[C@H]21 | -13.3 |
| COC(=O)c1ccc2nc(CO[C@H]3CN(CC4CC4)C[C@H]3F)[nH]c2c1 | 1.07 |
| CC(=O)NC[C@H]1COCc2nc3c(C)cccc3n21 | 10.8 |
| Cc1ccc2[nH]c(CO[C@H]3CN(C(=O)C4CC4)C[C@H]3F)nc2c1 | 3.41 |
| CS(=O)(=O)c1ccc(CNC[C@H]2COCc3nc4cccnc4n32)cc1 | -1.94 |

| Structure (SMILES) | cytotoxicity at 70.5 h [%] |
| --- | --- |
| c1cnc2c(c1)nc1n2[C@@H](CNCc2nccs2)COC1 | -8.24 |
| Cc1cc2nc(CO[C@H]3CN(C)C[C@H]3F)[nH]c2cc1C | -0.513 |
| CC(=O)N1CCC(N[C@@H]2CO[C@H](CNC(=O)C3CCCC3)[C@H]2O)CC1 | -5.38 |
| O=C1N(c2ccccc2)C[C@H]2CN(C3CCC3)CCN12 | -3.05 |
| COCCN1C[C@H]2CN(Cc3cccc(OC(F)(F)F)c3)CCN2C1=O | -7.08 |
| COCCN1C[C@H]2CN(Cc3cccc(OC)c3)CCN2C1=O | -7.25 |
| O=C1N(Cc2cccnc2)C[C@H]2CN(S(=O)(=O)c3ccccc3)CCN12 | 1.73 |
| O[C@H]1COCCN(Cc2cccc3c2OCO3)C1 | -4.2 |
| COc1ccc(O[C@H]2COCCN(Cc3c[nH]c4ccccc34)C2)cc1 | 1.44 |
| CO[C@H]1COCCN(C(=O)c2ccc(F)cc2)C1 | -3.92 |
| Cc1ccc(S(=O)(=O)NC[C@H]2OC[C@@H](NCc3ccccc3)[C@@H]2O)cc1 | -10 |
| O=C1N(Cc2ccccc2)C[C@H]2CN(Cc3ccccc3Cl)CCN12 | -1.14 |
| CS(=O)(=O)N1CCN2C(=O)N(C3CCCCC3)C[C@H]2C1 | 7.82 |
| O=C1NC[C@H]2CN(Cc3ccccn3)CCN12 | 0.693 |
| CN1C[C@H]2CN(C(=O)c3ccc4c(c3)OCO4)CCN2C1=O | -8.59 |
| CS(=O)(=O)N1CCN2C(=O)N(C3CCOCC3)C[C@H]2C1 | 12.9 |
| COc1ccc(-c2cn3c(n2)CO[C@@H](CNCc2ccccn2)C3)cc1 | -0.00582 |
| c1cncc(O[C@H]2COCCN(C3CCC3)C2)c1 | 1.49 |
| CC(C)C(=O)N1CCOC[C@H](Oc2ccc(C(F)(F)F)cc2)C1 | -1.93 |
| COc1ccc(CN2CCOC[C@H](OCC(=O)N(C)C)C2)cc1 | -1.39 |
| COc1ccc(-c2noc([C@@H](C)NS(=O)(=O)CC(C)C)c2C(=O)O)cc1 | -10.7 |
| C[C@@H](NC(=O)c1cnccn1)c1c(-c2ccc(F)cc2)noc1C(=O)O | -1.48 |
| CC(C)N1CCOC[C@H]1c1nc(C(C)(C)C)c[nH]1 | 0.329 |
| CC(C)(C)c1coc([C@@H]2COCCN2Cc2ccccc2)n1 | 0.308 |
| c1cc(-c2c[nH]c([C@@H]3COCCN3Cc3ncc[nH]3)n2)ccn1 | 1.76 |
| c1cc(-c2c[nH]c([C@@H]3COCCN3Cc3csnn3)n2)ccn1 | 12.8 |

| Structure (SMILES) | cytotoxicity at 70.5 h [%] |
| --- | --- |
| CC(C)NC(=O)N1CCCC2(CCCCN2)C1 (stereo not drawn) | -7.7 |
| CCC(CC)C(=O)N1CCOC2(CNC2)C1 | 6.77 |
| CC(=O)N1CC2C[C@]2(NC(=O)c2ccco2)C1 (stereo partly drawn) | 18.4 |
| CC(C)NC(=O)N1CCC2(CC1)[C@@H]1CN(C(=O)N(C)C)C[C@@H]1C(=O)N2C | -7.71 |
| CC(=O)N1CCC2(CC1)[C@@H]1CN(C(=O)N(C)C)C[C@@H]1C(=O)N2C | -7.5 |
| CC(C)C(=O)NC1COC2(CCN(C(=O)c3ccc[nH]3)CC2)C1 (stereo not drawn) | -7.92 |
| CC(=O)N1C[C@@H]2C(=O)N(C)C3(CCN(C(=O)C(C)C)CC3)[C@@H]2C1 | -7.63 |
| CCN1C(=O)[C@H]2CN(Cc3cccnc3)C[C@H]2C12CCN(C(C)=O)CC2 | -10.7 |
| CN(C)C(=O)CCC(=O)N1CCC2(CC1)COC2 | 12.8 |
| CC(C)NC(=O)N1CCOC2(CNC2)C1 | -4.25 |
| O=C1CCC2(CCCN(C(=O)c3cnccn3)CC2)N1 (stereo not drawn) | 1.43 |
| CC(=O)N1CCC2(CC1)NC(=O)[C@H]1CN(Cc3cccnc3)C[C@H]12 | 18.4 |
| O=C1CO[C@@H]2CN(C(=O)CCc3ccccc3)C[C@H]2N1 | -5.06 |
| CC(C)CC(=O)N1CCC2(CC1)[C@@H]1CN(C(=O)N(C)C)C[C@@H]1C(=O)N2C | -3.34 |
| CC(=O)N1CCC2(CC1)[C@@H]1CN(Cc3cccnc3)C[C@@H]1C(=O)N2C | 18.5 |
| CC(=O)N1CCC2(CCN(CC(C)C)C2)C1 (stereo not drawn) | -5.21 |
| O=C(N1CCCC1)N1C[C@@H]2CCNC[C@@H]21 | -12 |
| CCN1C(=O)C(c2ccccc2)CC12CCN(S(C)(=O)=O)CC2 (stereo not drawn) | -9.88 |
| CN1CC[C@@H]2[C@@H]1CCN2Cc1ccc2c(c1)OCO2 | -9.96 |
| Cc1cccc(C(=O)N2C[C@@H]3[C@H](CC(=O)N4CCCC4)[C@@H]3C2)n1 | -6.1 |
| CC(=O)N1CCCC2(CCN(C(=O)c3nn(C)c4ccccc34)CC2)C1 | 29.2 |
| Cc1ccc(CN2CC3(CCN(S(=O)(=O)c4ccccc4)C3)C2)o1 | 24.3 |
| COc1ccc(CNC[C@@]2(COc3cccnc3)C[C@@H](O)[C@@H](O)C2)cc1 | 10.2 |
| COCCOC[C@]1(CNCc2cccc(OC)c2)C[C@@H](O)[C@@H](O)C1 | 0.877 |
| O=C(NC[C@@]1(COc2cnccn2)C[C@@H](O)[C@@H](O)C1)C1CCCC1 | 10.3 |
| C[C@@H](NC(=O)c1ccc(Cl)cc1)c1onc(-c2cccnc2)c1C(=O)O | -6 |

| Structure (SMILES) | cytotoxicity at 70.5 h [%] |
| --- | --- |
| O=C(NC[C@@]1(COc2cnccn2)C[C@@H](O)[C@@H](O)C1)C1CCOCC1 | -1.95 |
| Cc1cc(C(=O)N[C@H](C)c2onc(-c3cccnc3)c2C(=O)O)c(C)o1 | -2.03 |
| CN(C)C(=O)N1Cc2ccccc2C2(CCNCC2)C1 | 28.5 |
| O[C@@H]1C[C@@](CNCc2cccc(Cl)c2)(COc2cnccn2)C[C@@H]1O | -12 |
| O[C@@H]1C[C@@](CNCC2CC2)(COc2cccnc2)C[C@@H]1O | -7.73 |
| O[C@@H]1C[C@@](CNCc2ccc(F)cc2)(COc2cccnc2)C[C@@H]1O | 0.0431 |
| O[C@@H]1C[C@@](CNCc2ccccn2)(COc2cccnc2)C[C@@H]1O | -8.64 |
| CN(C)C(=O)C1CCC2(CCNCC2)C1 (stereo not drawn) | -2.3 |
| CCN1CC2(CNCCN(C(=O)Nc3ccccc3)C2)CC1=O (stereo not drawn) | 2.39 |
| CN(Cc1ccco1)C1CCC12CCN(C(=O)c1ccnnc1)CC2 (stereo not drawn) | 5.1 |
| Cc1cc(CN2CC[C@H]3[C@H]2CCN3S(C)(=O)=O)oc1C | -8.76 |
| CN(Cc1ccco1)C1CCC12CCN(C(=O)c1ccco1)CC2 (stereo not drawn) | -0.239 |
| CN1CC2(CNCCN(C(=O)Nc3ccccc3)C2)CC1=O (stereo not drawn) | -7.57 |
| O=C(C1CCCC1)N1CCCC2(CCN(c3cnccn3)CC2)C1 | -8.23 |
| CC(C)C(=O)N1CC2(CCN(CC(C)(C)C)CC2)C1 | 47.3 |
| CN(C)CCN1C[C@@H]2CN(S(=O)(=O)c3cccs3)C[C@@H]2C1=O | -10.9 |
| CCN1C[C@@H]2CN(Cc3cccs3)C[C@@H]2C1=O | -10.6 |
| CCN1CC[C@@]2(C(=O)N(C)C)CCN(S(=O)(=O)c3ccccc3)CC[C@@H]12 | -9.93 |
| CCS(=O)(=O)N1CCC2(CCN(Cc3cccc(OC)c3)CC2)CC1 | -2.06 |
| CN1CCOC2(CCCN(C(=O)C3CCCCC3)C2)C1 (stereo not drawn) | 34.5 |
| N#Cc1ccc(C(=O)N2CC[C@H]3[C@H]2CCN3CC2CCOCC2)cc1 | 12.2 |
| c1cc2c(cc1CN1CC[C@H]3[C@H]1CCN3CC1CC1)OCO2 | -1.51 |
| CC(C)N1CCc2[nH]nc(C(=O)N3CCOCC3)c2C1 | -12.9 |
| O=C(NCC1CC1)c1n[nH]c2c1CNCC2 | -10.7 |
| CC(C)N1CCc2[nH]nc(C(=O)N3CCN(C)CC3)c2C1 | -1.5 |
